Literature values, collected in patent US20240139276A1, “HAIR GROWTH AGENT” (ADJUVANT HOLDINGS CO., LTD., priority 2021, published 2024).

Assays:
[1] = system: fibroblast growth factor 7 (FGF-7) expression in human dermal papilla cells; conditions: adenosine allowed to act on human dermal papilla cells
[2] = system: vascular endothelial growth factor (VEGF) expression in human dermal papilla cells; conditions: adenosine allowed to act on human dermal papilla cells

Nc1ncnc2c1ncn2[C@@H]1O[C@H](CO)[C@@H](O)[C@H]1O [adenosine]
expression of fibroblast growth factor 7 (FGF-7) [1]: also promotes expression of fibroblast growth factor 7 (FGF-7) | expression of vascular endothelial growth factor (VEGF) [2]: promotes expression of vascular endothelial growth factor (VEGF)
